System: subjects with schizophrenia
Assay: Change in PANSS total score by rs6435681 (ErbB4) genotype, pooled paliperidone arms of clinical trial Nos. 1-4
Assay type: in vivo, human
Conditions: trials 1-4; for mean reduction in PANSS total score: baseline to end of study
Procedure: The paliperidone treated arms of clinical trial Nos. 1-4, were pooled and examined for genetic association. The trial Nos. 1-3 were paliperidone ER phase III studies and trial No. 4 was a paliperidone palmitate phase II/III study. To confirm results of the initial genetic association, additional paliperidone treated cohorts, including paliperidone palmitate phase III clinical trial Nos 5-8 and paliperidone ER phase III/IV trial Nos. 9 and 10 were evaluated. The results were further examined with the placebo arms of trial Nos. 1-4 and 6-10, the olanzapine arms of trial Nos. 1-3 and 11, the quetiapine arm of trial No. 9, and the Risperdal Consta arm of the trials No. 5 and 11.
Trial Nos. 1 to 3 were randomized, double-blind, placebo and active controlled phase III trials that were designed to evaluate efficacy and safety of paliperidone-ER in the acute treatment of subjects with schizophrenia. Schizophrenic patients experiencing active symptoms, with Positive and Negative […] (PANSS) score=70-120, were enrolled and randomized to different treatment groups. The patients received paliperidone-ER of 3 mg, 6 mg, 9 mg, 12 mg, or 15 mg, olanzapine of 10 mg or placebo tablet once daily for 6 weeks. Primary efficacy variable/Primary Time point was changed in the total PANSS score from baseline to endpoint. The baseline value was the measurement from the last visit prior to or including the first day of dosing with double-blind study medication, and the endpoint value was the measurement at the end of the double-blind phase or the last post-baseline observation during the double-blind phase. Detailed clinical study design and outcomes of trial Nos. 1-3 were described elsewhere (Marder et al., Biol Psychiatry. 2007, 62:1363-70; Davidson et al., Schizophr Res. 2007, 93:117-30; Kane et al., Schizophr Res. 2007, 90:147-61. Epub).
Trial No. 4 was a randomized, double-blind, placebo-controlled phase II/III study to evaluate the efficacy and safety of long-acting injections of paliperidone palmitate at fixed doses of 50 and 100 mg equivalent in subjects with schizophrenia. Subjects were required to have a total PANSS score between 70 and 120 at Screening and between 60 and 120 on Day 1 prior to the start of double-blind treatment. The primary efficacy variable was the change in total PANSS score from the start of the double-blinded treatment period to the last post-randomization assessment in the double-blinded treatment period.
DNA collected from subjects who consented to the optional pharmacogenomic component of the above clinical trials were analyzed in the genetic study. Briefly, blood samples were collected from subjects and extracted for genomic DNA. […]

## Cc1nc2n(c(=O)c1CCN1CCC(c3noc4cc(F)ccc34)CC1)CCCC2O (stereo not shown) [Paliperidone]
Patients with AA genotype at rs6435681 (N=25)
  mean reduction in PANSS total score: 0.6
Patients with AA genotype
  patients displaying a 30% or higher reduction in PANSS total score from baseline: 8%
Patients with GG or GA genotype at rs6435681 (N=659)
  mean reduction in PANSS total score: 17.8
Patients with GG/GA genotype
  patients displaying a 30% or higher reduction in PANSS total score from baseline: Twenty-nine

Reference: patent US20100144781A1, “METHODS OF TREATING PSYCHOSIS AND SCHIZOPHRENIA BASED ON POLYMORPHISMS IN THE ERBB4 GENE” (priority 2008, published 2010)
